Reference: US5688936A, “Vesicle membrane transport proteins” (priority 1993, dated 1997)
“Also recorded” adds a separate entry of the source. Like-named read-outs stand apart in the source and are kept apart here.

Assays:
[1] = biological target: T1, chromaffin granule amine transport protein (Rattus norvegicus, UniProt Q01818); assay: cell-based; format: cell-based
T1 sequence (Q01818 1-521): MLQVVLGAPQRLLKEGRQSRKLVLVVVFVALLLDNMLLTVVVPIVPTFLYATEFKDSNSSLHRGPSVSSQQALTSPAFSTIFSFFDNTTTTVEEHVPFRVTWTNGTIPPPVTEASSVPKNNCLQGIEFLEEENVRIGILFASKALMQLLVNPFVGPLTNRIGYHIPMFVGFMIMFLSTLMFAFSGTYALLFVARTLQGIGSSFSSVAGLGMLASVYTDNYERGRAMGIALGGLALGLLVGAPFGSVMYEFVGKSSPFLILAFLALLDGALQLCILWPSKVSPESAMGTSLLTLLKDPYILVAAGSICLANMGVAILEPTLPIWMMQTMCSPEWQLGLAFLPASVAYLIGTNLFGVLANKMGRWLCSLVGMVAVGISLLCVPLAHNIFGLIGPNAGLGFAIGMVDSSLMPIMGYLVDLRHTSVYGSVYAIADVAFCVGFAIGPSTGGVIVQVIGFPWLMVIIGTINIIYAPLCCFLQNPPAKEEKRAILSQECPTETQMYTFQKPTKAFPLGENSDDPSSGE
Protocol: Uptake and cellular compartmentalization of loaded dopamine were performed by growing cells on poly-lysine-coated glass coverslips. […] The cells were then washed three times in 0.1M sodium phosphate, pH 7.4, and incubated at 4° C. in 2% glyoxylic acid/0.5 mg% MgCl2, pH 4.9-5.0 for three minutes as described by de la Torre, J. Neurosci. Meth. 3:1-5 (1980). Briefly, excess solution is wiped off the bottom and edges of the slide using absorbent paper, taking care not to touch the section. The coverslips were then drained thoroughly, dried in air at 45° C. heated to 80° C. for five minutes, inverted over mineral oil on glass slides and examined under fluorescence using the appropriate filters as described by Knigge et al., Brain Res. 120:393-405 (1977). Briefly, the preparations were infiltrated with warm immersion oil and examined in a Leitz MPV2 microspectrofluorometer equipped with Schoffel excitation and emission grating monochromators, photomultipliers, and ratio computing circuitry. Cells were scanned with either monochromatic light (370 nm) or narrow band excitation (S405, BG3) light for the purpose of identifying fluorescence within cells. Ploem illumination was used in combination with a X 63 or X 100 oil immersion objective.
Dopamine-loaded fluorescence was carried out as described in Example 1. […] Glyoxylic-acid-induced fluorescence was used to determine the intracellular distribution as described above in Example 1. The procedures were the same as described in Example 1 however a pure cDNA clone encoding the vesicle membrane transport protein, selected in the presence of MPP^+, obtained as described herein, was used rather than the primary transformant. […]
The effects of various pharmacologic agents were tested to determine whether the properties of the protein encoded by the mpp^res cDNA corresponded with those expected for the chromaffin granule amine transport protein. […] The cells were pre-incubated in Krebs-Ringer buffer containing 1 μM pargyline and the dose of the drug indicated for 15 minutes. 25 nM [^3 H]-dopamine was then added in the same buffer and after incubation at 37° C. for one hour, the cells were washed in cold Krebs-Ringer buffer, lysed and counted in Ecolite (ICN) as described by Greene and Rein, Brain Res. 129:247-263 (1978). Values were determined from three separate wells and the mean was expressed as percent of control uptake±standard deviation. […] The dose required to inhibit maximal uptake by 50%, Ki, was estimated from the fluorescence data using a range of concentrations for each agent.

[2] = test system: amines and tyrosine hydroxylase; conditions: cited from earlier work
[3] = biological target: T1, chromaffin granule amine transport protein; assay: Quantitative [3H]dopamine transport assay with mpp^res CHO cell homogenate; format: biochemical; conditions: dose-response, 2-minute incubation (FIG. 15C)
Protocol: The quantity of label bound is measured after filtration of the assay mixture. Preferably, the label is a radioactive label. […] This can be done by standard graphic kinetic techniques such as the Lineweaver-Burke plot.
Incubation was performed at 29° C. for the time period indicated (from 2 minutes to 30 minutes). The assay was terminated by dilution in cold assay buffer followed by filtration through 0.2 μm Supor™ 200 membranes (Gelman, Ann Arbor, Mich.) and the bound radioactivity was measured. The cells used for the quantitative assay are selected in MPP^+ or screened with antibody to ensure that they express the transporter at high levels, as it is difficult to measure activity in this assay at low levels of transporter expression.
The quantitative transport test was performed as described above on wild-type CHO cells and mpp^res CHO cells.

wild-type CHO cells = assay: MTT cytotoxicity assay in wild-type CHO cells; format: cell-based, Chinese hamster; conditions: wild-type CHO, lower MPP+ concentrations
Protocol: Differential susceptibility to the respiratory complex I inhibitors MPP^+ and rotenone was shown by measuring toxicity by measuring general cell dehydrogenase activity with reduction of a tetrazolium dye (MTT) in a spectrophotometric plate assay as described by Hansen et al., J. Immunol. Methods 119:203-210 (1989). Briefly, a stock solution of MTT (3,(4,5-dimethylthiazol-2-yl)2,5-diphenyltetrazolium bromide) was dissolved at a concentration of 5 mg/ml in sterile phosphate buffered saline at room temperature. To each well was added 25 μl of the stock solution. After two hours of incubation at 37° C., 100 μl of extraction buffer (20% w/v of SDS in a solution of 50% each dimethylformamide and demineralized water with the pH adjusted to 4.7 with acetic acid and HCl). After an overnight incubation at 37° C., the optical densities at 570 nm were measured using a multiscanner, employing the extraction buffer as the blank. This assay was carried out in triplicate on 96-well plates (NUNC, Denmark). MPP^+ and rotenone at the concentrations indicated in FIG. 6a and 6b, respectively, was added to wild-type and MPP^+ -resistant CHO cells at approximately 50% confluence, and toxicity was assayed after 2-3 days by measuring general cell dehydrogenase activity with the reduction of the tetrazolium dye MTT (3,(4,5-dimethylthiazol-2-yl)2,5-diphenyl-tetrazolium bromide). After addition of the dye at a final concentration of 1 mg/ml, the cells were incubated for two hours at 37° C. and the formazan product was solubilized in 10% sodium dodecyl sulfate (SDS). The plates were maintained at 37° C. for an additional twenty hours and the optical density was determined in an ELISA plate reader at a test wavelength of 570 nm, a reference wavelength of 630 nm and a calibration setting of 1.99. All determinations were performed in triplicate and expressed as the mean, with the error bars representing standard deviation (FIG. 6a and 6b).

[4] = test system: vesicular amine transport protein; conditions: cited from earlier work

For `COC(=O)[C@H]1[C@H]2C[C@@H]3c4[nH]c5cc(OC)ccc5c4CCN3C[C@H]2C[C@@H](OC(=O)c2cc(OC)c(OC)c(OC)c2)[C@@H]1OC` [reserpine], which “inhibition of vesicular dopamine uptake in the fluorescence assay” value ([1]; 50 nM) is on record?
The value was “inhibit vesicular dopamine uptake completely”.

And the “perinuclear and particulate cytoplasmic dopamine staining of MPP+-resistant CHO cells” value ([1]; 1 μM)?
The value was “inhibited”.

And the “Dopamine Fluorescence (mpp^res CHO)” value ([1]; agent 1 μM, untreated control ++++, 12 hour dopamine loading)?
The value was 0.

And the Ki ([1]; dose required to inhibit maximal uptake by 50%, estimated from fluorescence data, read-out: Ki (est))?
The Ki was 25 nM.

And the “pattern of catecholamine accumulation in the MPP+-resistant transfectant” value ([1]; reserpine concentration not stated)?
Its value is “reversion to the wild-type pattern of catecholamine accumulation; also recorded: reversed”.

What about the “potentiation of amine depletion and reduction in tyrosine hydroxylase by MPP+” value [2] of the same compound?
Its value is “can potentiate the depletion of amines and reduction in tyrosine hydroxylase by MPP^+”.

And the “inhibition of dopamine transport” value [3]?
The value was “inhibition by both reserpine and tetrabenazine”.

What about the “effect on MPP+ toxicity in wild-type cells” value (wild-type CHO cells) of the same compound?
Its value is “very little reproducible effect”.

And the “inhibition of vesicular amine transport” value [4]?
Its value is “inhibits”.

What about the “inhibition of vesicular amine transport” value ([4]; listed as Reserpine) of the same compound?
Its value is “inhibit this transport activity”.
